Data from patent US20120064505A1, “MEASUREMENT OF MATERIAL PROPERTIES AND RELATED METHODS AND COMPOSITIONS” (Massachusetts Institute of Technology, priority 2010, published 2012).
“Also recorded” adds a separate entry of the source.

Tests used:
RBCs = experiment: Deformability cytometer: velocity and passage of glutaraldehyde-treated RBCs; format: cell-based, human; conditions: 30 minutes in PBS; about 0.61 Pa/μm; FIG. 5B
From the text: A mold of the device was made on a silicon wafer using photolithography and reactive-ion etching techniques. A 5× reduction step-and-repeat projection stepper (Nikon NSR2005i9, Nikon Precision) was used for patterning. The spacing between pillars was 3 μm, and the depth of the device was 4.2 μm. The device was made using standard PDMS casting protocols and bonded to a glass slide.
PBS was mixed with 0.2% w/v Pluronic F-108 (BASF, Mount Olive, N.J.) and 1% w/v Bovine Serum Albumin (BSA) (Sigma-Aldrich, St. Louis, Mo.) as a stock solution to prevent RBC adhesion to the device walls. For the fluorescent bead experiments, 200 nm FluoSpheres europium luminescent microspheres (Molecular Probes, Eugene, Oreg.) diluted to a final concentration of 1.25×10^−5 percent solids were used.
In experiments involving blood, 1 μl of whole blood (−50% hematocrit) was diluted in 100 μl of the PBS-pluronic-BSA solution for all of the experiments. In experiments involving parasites that express GFP, no further treatment was performed. In experiments involving healthy RBCs, 1 μl of whole blood (Research Blood Components, Brighton, Mass.), 1 μl of 50 μg/ml of Cell Tracker Orange (Invitrogen, Carlsbad, Calif.), and 98 μl of PBS were mixed with the indicated concentration of glutaraldehyde and allowed to sit for 30 minutes. The sample was then washed 3 times with the PBS-Pluronic-BSA solution. […]

[1] = test system: P. falciparum-infected RBCs (iRBCs) and co-cultured uninfected RBCs (uRBCs); experiment: Microfluidic deformability cytometer: RBC mobility after artesunate treatment; format: cell-based, human; conditions: for separation resolution between iRBCs and uRBCs: after drug treatment vs without
Protocol: The deformability of both iRBCs and uRBCs were measured at 2, 4 and 6 hours after artesunate drug treatment (FIG. 60). A synchronized culture of rings with ˜15% parasitemia was resuspended at 0.1% hematocrit in malaria culture medium containing 0.01, 0.05 or 0.1 μg/ml of artesunate.
Layout program CleWin3.0 was used to design the microfluidic device, which consists of a 500×500 μm^2 inlet reservoir, a 500×500 μm^2 outlet reservoir, and parallel capillary channels with triangular pillar arrays (FIG. 55A). Three different pore-size of 2.5, 3.0 and 4.0 μm were designed for the capillary channels to test optimum deformation condition for the experiment. A silicon mold of the device was made using standard silicon processing techniques. The photolithography step was done using a 5× reduction step-and-repeat projection stepper (Nikon NSR2005i9, Nikon Prevision) and reactive-ion etching (RIE) techniques were used to give the mold a final depth of 4.2 μm. Final device was then casted from the silicon mold using polydimethylsiloxane (PDMS) and was sealed by a glass slide using oxygen plasma.
P. falciparum 3D7A parasites (from Malaria Research and Reference Reagent Source, American Type Culture Collection) were cultured in leukocyte-free human RBCs (Research Blood Components, Brighton Mass.) in RPMI 1640 complete medium as described (Trager and Jensen J. parasitol. 2005). Parasites cultures were synchronized by sorbitol lysis (Lambros, C 1979 J. parasitol.) two hours after merozoite invasion.
1× Phosphate buffered saline (PBS) was mixed with 1% w/v Bovine Serum Albumin (BSA) (Sigma-Aldrich, St. Louis, Mo.) as a stock solution and was fresh made on every experimental day. For experiments tracking fluid flow velocity, 200 nm FluoSpheres europium luminescent microspheres (Molecular Probes, Eugene, Oreg.) were used at a final concentration of 5.0×10^−[…] percent solids. For experiments involving only healthy RBCs, fresh whole blood (Research Blood Components, Brighton, Mass.) was used at 100 times dilution (i.e. 1 μl whole blood with 99 μl stock solution). For experiments involving parasitized cells, 1 ml of cultured cells were spun down at 1,000 rpm for 5 minute; 1 μl of the pellet was then aliquot to 200 μl stock solution.
10 μl of 1×10^−6M thiazole orange Orange (Invitrogen, Carlsbad, Calif.), which stains the RNA of the cell, was added to the aforementioned 200 μl iRBC solution 20 minutes before the experiment. The infected cells would appear fluorescent under the GFP filter set whereas the uninfected cells were seen as dark shadows.
To control the ambient temperature, the microscope surface was replaced by a heating chamber (Olympus), which was preheated to a desired temperature range (i.e. 30-40° C.) for 30 minutes before the beginning of every experiment. […]

[2] = test system: Acute promyelocytic leukemia cells; conditions: differentiated down the neutrophil lineage for three days; cited from earlier work
WT T cells = experiment: Micropipette aspiration of chemokine-stimulated migratory T cells (WT); format: cell-based, mouse
Protocol: (§1) Cells from the peripheral lymph nodes and the spleen of Balb/c mice and WAS−/− mice on Balb/c background were pooled and enriched using the EasySep Mouse CD8+ T Cell Enrichment Kit from STEMCELL Technologies (British Columbia, Canada). Enrichment was confirmed using fluorescence-activated cell sorting (FACS) by staining the cells with FITC/anti-Thy1.2 and PE/anti-CD8α antibodies (Abs). The'memory T cell population was assessed by evaluating the expression of CD44 and CD62L via FACS. T cells in an activation medium with 100 units/mL IL-2 and 1% anti-CD28 Ab were activated by plate-bound anti-CD3 Abs for 4 day at 37° C. The activation medium included RPMI with 10% FBS, 10 mM HEPES (1M), 1% NEAA, 1% sodium pyruvate (100 mM), 50 μM β-mercaptoethanol, 4 mM L-glutamine, and 100 μg/mL Pen/Strep. Cell activation was verified via FACS measurement of CD25.
(§2) Micropipettes made using a micropipette puller were trimmed to 2.5-3 or 4.5-5 μm inner diameter for testing naïve and activated T cells. MPA glass chambers consisted of a 24 mm×60 mm microscope coverslip bottom, a U-shaped parafilm spacer, and a 22 mm×22 mm microscope coverslip top. The assembly was baked for two hours at 80° C. to ensure good adhesion between the components.
(§3) Enriched WT and WAS−/− T cells in DMEM with 1% BSA and 0.1% Pen/Strep were induced to migrate through polycarbonate Transwell inserts (Costar, Cambridge, Mass.) with 5-μm pores in a 24-well plate toward a CCL19 chemokine source (R&D Systems, Minneapolis, Minn.). Inserts contained 5×10^5 cells in 100 μL of medium, and wells contained 1 mL of medium with either no CCL19 or 100 ng/mL of CCL19. Cells were allowed to migrate for ˜7 hours at 37° C., and those that crossed the membrane were collected and used for MPA studies.
3×10^5 cells in 100 μL RPMI with 10% FBS and 1% HEPES was stained with 10 μL trypan blue. The mixture was added to 600 μL of either the RPMI medium or the T cell activation medium with IL-2 for naïve and activated T cell testing. […] The cell movement in the micropipette was recorded with a CCD camera. […]

WAS−/− T cells [3] = experiment: Micropipette aspiration of chemokine-stimulated migratory T cells (WAS−/−); format: cell-based, mouse; conditions: naïve WAS−/− T cells that migrated toward CCL19 100 ng/mL, ~7 hours; mean+/−SD
Protocol: as §1
as §2, with “components. […]” for “components.”
3×10^5 cells in 100 μL RPMI with 10% FBS and 1% HEPES was stained with 10 μL trypan blue. […] The cell movement in the micropipette was recorded with a CCD camera. […]

WAS−/− T cells [4] = experiment: In vitro Transwell cell migration toward CCL19 (WAS−/−); format: cell-based, mouse; conditions: seven hours of exposure to CCL19; 5-μm pore Transwell
Protocol: as §3

Molecule: O=CCCCC=O [glutaraldehyde]
- RBC stiffness / velocity with increasing concentration (RBCs): progressively stiffer with decreasing velocity

Molecule: C[C@H]1[C@H](OC(=O)CCC(=O)O)O[C@@H]2O[C@@]3(C)CC[C@H]4[C@H](C)CC[C@@H]1[C@@]24OO3 [artesunate]
- cell mobility change due to drug treatment ([1]; FIG. 60, 2, 4 and 6 hours, 0.01 to 0.1 μg/ml): significant decrease in cell mobility
- stiffening effect on iRBCs and uRBCs ([1]; after artesunate treatment): stiffening effect on both iRBCs and uRBCs; also recorded: both iRBCs and uRBCs stiffened considerably
- separation resolution between iRBCs and uRBCs [1]: almost doubled
- separation resolution between iRBCs and uRBCs ([1]; listed as Artesunate): doubled

Molecule: CC1=C(/C=C/C(C)=C/C=C/C(C)=C/C(=O)O)C(C)(C)CCC1 [all-trans retinoic acid]
- compliance increase vs control [2]: 45%

B1: CCL19: chemokine (R&D Systems) used as chemoattractant for T cells (protein, UniProt Q99731 22-98, looked up)
C-C motif chemokine 19: GTNDAEDCCLSVTQKPIPGYIVRNFHYLLIKDGCRVPAVVFTTLRGRQLCAPPDQPWVERIIQRLQRTSAKMKRRSS
- reduction of modulus from the value in the absence of CCL19 (WT T cells; migratory WT cells): more than 2 times
- stiffness relative to activated cells (WT T cells; migratory WT cells vs activated WT T cells): about 1.4 times
- average apparent Young's modulus (WT T cells; naïve WT T cells that migrated toward CCL19 100 ng/mL, ~7 hours, mean+/−SD): 128+/−33 Pa
- average apparent Young's modulus (WAS−/− T cells [3]): 152+/−102 Pa
- cells migrated (WAS−/− T cells [4]): ~6.4%
